# Reference: patent US20240254087A1, “SELECTIVE, PARTIAL, AND ARRESTIN-BIASED 5-HT2A AGONISTS WITH UTILITY IN VARIOUS DISORDERS” (Saint Joseph's University, priority 2021, published 2024)
# How the values were obtained:
# mice = experiment: PCP-induced locomotor hyperactivity; type: in vivo, mouse
# Description: (A). DOI, a hallucinogen and 5-HT2A agonist, was administered IP 10 min after SC administration of vehicle or test drug. A and then HTR activity was assessed for 30 minutes. *p<0.001, significant difference vs. vehicle (B). Vehicle or the NMDA receptor antagonist PCP (5 mg/kg) was injected IP 10 min after SC administration of vehicle or 25N-NB1-Nap (16), and then the mice were placed in the test chambers 10 min later for a 60-min assessment of locomotor activity. (C). […] Mice were treated with vehicle or M100907 (0.03 mg/kg SC) 10 min prior to vehicle or PCP (5 mg/kg IP): animals were placed in the test chambers 10 min after treatment with PCP. Animals were tested for 60 min. *p<0.01 vs. vehicle: ^#p<0.01 vs. PCP alone.
# Male C57BL/6J mice (6-8 weeks old) from Jackson Labs (Bar Harbor, ME, USA) were used for the behavioral experiments. The mice were housed on a reversed light-dark cycle (lights on at 1900 h, off at 0700 h) in an AAAC-approved vivarium at the University of California San Diego. Mice were housed up to four per cage in a climate-controlled room and with food and water provided ad libitum except during behavioral testing. Testing was performed between 1000 and 1800 h (during the dark phase of the light-dark cycle). The studies were conducted in accordance with National Institutes Health (NIH) guidelines and were approved by the University of California San Diego Institutional Animal Care and Use Committee.
# Edelfosine, DOI, R—(−)-DOI, and PCP were injected IP (5 mL/kg): 25N—NB and its derivatives were injected SC (5 mL/kg or 10 mL/kg): YM-254,890 was injected into the lateral ventricle (2 μL) over 1 min.
# The mouse behavioral pattern monitor (BPM) was used to assess locomotor activity. Each mouse BPM chamber (San Diego Instruments, San Diego, CA, USA) is a transparent Plexiglas box with an opaque 30×60 cm floor, enclosed in a ventilated isolation box. The position of the mouse in x.y coordinates is recorded by a grid of 12×24 infrared photobeams located 1 cm above the floor. A second row of 16 photobeams (parallel to the long axis of the chamber, located 2.5 cm above the floor) is used to detect rearing behavior. Holepoking behavior is detected by 11 1.4-cm holes that are situated in the walls (3 holes in each long wall, 2 holes in each short wall) and the floor ([…]); each hole is equipped with an infrared photobeam. The status of each photobeam is sampled every 55 ms and recorded for offline analysis. Locomotor activity was quantified as distance traveled, which was analyzed in 20-min blocks using a three-way ANOVA, with pretreatment and treatment as between subject variables and time as a within-subject variable. Tukey's studentized range method was used for post hoc comparisons.
# male C57BL/6J mice = experiment: Tolerance: DOI-induced HTR after 5 days repeated treatment; type: in vivo, mouse; conditions: 5 days SC: 25N-N1-Nap 20, DOI 10, pimavanserin 1 mg/kg/day
# Description: The mice were allowed to recover from the magnet implantation surgeries for at least 1 week prior to behavioral testing. HTR experiments were conducted in a well-lit room, and the mice were allowed to habituate to the room for at least 1 h prior to testing. Head twitches was assessed in a 12-cm diameter glass cylinder surrounded by a magnetometer coil. Coil voltage was low-pass filtered (2 kHz), amplified, and digitized (20-kHz sampling rate) using a Powerlab/8SP with LabChart v 7.3.2 (ADInstruments, Colorado Springs, CO, USA). […] HTR counts were analyzed using one-way ANOVAs. Dunnett's test was used for post hoc comparisons.
# humans = conditions: intranasal or sublingual routes; cited from earlier work
SMILES,Effect on baseline locomotor activity (mice; 3 mg/kg SC),"Effect on PCP-induced locomotor hyperactivity (mice; PCP 5 mg/kg IP, 25N-N1-Nap 3 mg/kg SC, M100907 0.03 mg/kg SC)",Ability of DOI (1 mg/kg IP) to induce the HTR after repeated daily treatment (male C57BL/6J mice),Active dose in humans (humans)
"COc1cc([N+](=O)[O-])c(OC)cc1CCNCc1cccc2ccccc12 [25N-N-1-Nap (16), [2-(2,5-dimethoxy-4-nitrophenyl)ethyl][(naphthalen-1-yl)methyl]amine]",had no effect,antagonized,reduced significantly,
"COc1cc([N+](=O)[O-])c(OC)cc1CCNCc1ccccc1OC [25N-NBOMe (4), [2-(2,5-dimethoxy-4-nitrophenyl)ethyl] [(2-methoxyphenyl)methyl]amine]",,,,0.3 to 0.8 mg
